Target: T1, human ODC (Homo sapiens, UniProt P11926)
T1 construct: His-tag (N); made in house; host or cells: Escherichia coli JM109
T1 sequence (P11926 1-461): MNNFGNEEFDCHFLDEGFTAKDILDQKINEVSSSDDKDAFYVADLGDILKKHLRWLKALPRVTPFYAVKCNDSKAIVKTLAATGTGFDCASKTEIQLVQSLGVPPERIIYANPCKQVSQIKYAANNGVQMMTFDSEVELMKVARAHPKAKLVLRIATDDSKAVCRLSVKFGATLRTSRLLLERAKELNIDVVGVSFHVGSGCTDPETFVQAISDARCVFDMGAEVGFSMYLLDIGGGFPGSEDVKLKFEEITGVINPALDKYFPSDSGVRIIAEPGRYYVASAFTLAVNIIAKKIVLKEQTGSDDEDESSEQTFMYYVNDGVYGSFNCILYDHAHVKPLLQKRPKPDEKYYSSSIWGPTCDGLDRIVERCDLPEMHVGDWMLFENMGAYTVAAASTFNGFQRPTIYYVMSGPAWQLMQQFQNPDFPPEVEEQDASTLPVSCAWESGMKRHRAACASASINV
Assay: ODC enzyme activity assay and inhibition study (CO2-L3K coupled spectrophotometric assay);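 further: His-tagged human ODC expressed in Escherichia coli, activity followed as decarboxylation coupled via PEP carboxylation and malate formation to NADH analog oxidation, absorbance drop at 405 nm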
Type: biochemical
Details: for ODC suppression activity (in words): purified human ODC enzyme activity; for IC50 to ornithine decarboxylase (ODC) / IC50: purified human ODC, 37 °C, 10 mM ornithine, 0.2 mM PLP, n = 3; for IC50: read-out: IC50 to ornithine decarboxylase (ODC); for IC50 relative to that of myricetin: IC50 greater than that of myricetin

IC50 to ornithine decarboxylase (ODC)	SMILES	ODC suppression activity (in words)	also measured
No inhibition	COc1ccc(-c2coc3cc(O)cc(O)c3c2=O)cc1 [Biochanin]	did not show any ODC suppression activity	–
No inhibition	O=c1cc(-c2ccccc2)oc2ccccc12 [Flavone]	little ODC suppression activity	–
No inhibition	O=c1cc(-c2ccccc2)oc2cc(O)cc(O)c12 [Chrysin]	little ODC suppression activity	–
No inhibition	COc1ccc2c(=O)cc(-c3ccccc3)oc2c1OC [7,8-Dimethoxyflavone]	little ODC suppression activity	–
No inhibition	O=c1cc(-c2ccccc2)oc2ccc(O)cc12 [6-Hydroxyflavone]	did not show any ODC suppression activity	–

The next lines start with the compound.

SMILES	IC50 to ornithine decarboxylase (ODC)	ODC suppression activity (in words)	also measured
CCOc1cc(C=O)ccc1O [Ethyl vanillin, reference compound]	–	cannot inhibit ODC activity	ODC suppression activity (in words) (listed as ethyl vanillin): none of these compounds were able to suppress ODC activity
Cn1c(=O)c2c(ncn2C)n(C)c1=O [Caffeine, reference compound]	–	cannot inhibit ODC activity	ODC suppression activity (in words) (listed as caffeine): none of these compounds were able to suppress ODC activity
Oc1ccc2c(c1)OCO2 [Sesamol, reference compound]	–	cannot inhibit ODC activity	ODC suppression activity (in words) (listed as sesamol): none of these compounds were able to suppress ODC activity
Cc1ncc(CO)c(CN)c1O [Pyridoxamine, reference compound]	–	cannot inhibit ODC activity	ODC suppression activity (in words) (listed as pyridoxamine): none of these compounds were able to suppress ODC activity
Cn1c(=O)c2[nH]cnc2n(C)c1=O [Theophylline, reference compound]	–	cannot inhibit ODC activity	ODC suppression activity (in words) (listed as theophylline): none of these compounds were able to suppress ODC activity
Cc1ncc(CO)c(C(=O)O)c1O [4-Pyridoxic acid, reference compound]	–	cannot inhibit ODC activity	ODC suppression activity (in words) (listed as 4-pyridoxic acid): none of these compounds were able to suppress ODC activity
O=c1c(O)c(-c2ccccc2)oc2ccccc12 [Flavonol]	No inhibition	little ODC suppression activity	–
O=c1cc(-c2ccccc2)oc2cc(O)c(O)cc12 [6,7-Dihydroxyflavone]	–	–	IC50 relative to that of 7,8-DHF (IC50 greater than that of 7,8-DHF): approximately 100 fold; IC50: 289 µM
Cc1ncc(CO)c(C)c1O [4-Deoxypyridoxine, reference compound]	–	cannot inhibit ODC activity	ODC suppression activity (in words) (listed as 4-deoxypyridoxine): none of these compounds were able to suppress ODC activity
O=c1cc(-c2ccccc2)oc2cc(O)ccc12 [7-Hydroxyflavone]	No inhibition	did not show any ODC suppression activity	–
O=c1c(-c2ccc(O)cc2)coc2cc(O)ccc12 [Daidzein]	No inhibition	did not show any ODC suppression activity	–
O=c1c(O)c(-c2ccc(O)c(O)c2)oc2cc(O)cc(O)c12 [Quercetin]	–	–	IC50 relative to that of myricetin: 10 fold; IC50: 82 µM
O=C1C[C@@H](c2ccccc2)Oc2cc(O)cc(O)c21 [Pinocembrin]	No inhibition	little ODC suppression activity	–
C[C@@H]1O[C@@H](OC[C@H]2O[C@@H](Oc3c(-c4ccc(O)c(O)c4)oc4cc(O)cc(O)c4c3=O)[C@H](O)[C@@H](O)[C@@H]2O)[C@H](O)[C@H](O)[C@H]1O [Rutin]	–	did not display apparent ODC-suppressing activity	IC50: > 120 µM
O=c1cc(-c2ccc(O)c(O)c2)oc2cc(O)cc(O)c12 [Luteolin]	–	–	IC50 relative to that of myricetin: 10 fold; IC50: 90 µM
O=C1C=Cc2ccccc2C1=O [1,2-Naphthoquinone, reference compound]	–	cannot inhibit ODC activity	ODC suppression activity (in words) (listed as 1,2-naphthoquinone): none of these compounds were able to suppress ODC activity
O=C1C[C@@H](c2ccc(O)cc2)Oc2cc(O)cc(O)c21 [Naringenin]	No inhibition	did not show any ODC suppression activity	–
NCCCC(N)(C(=O)O)C(F)F (racemic) [DFMO, α-DL-difluoromethylornithine, reference compound]	–	–	IC50: ~100 µM
O=c1cc(-c2ccc(O)cc2)oc2cc(O)cc(O)c12 [Apigenin]	No inhibition	did not show any ODC suppression activity	–
O=c1c(O)c(-c2ccc(O)cc2O)oc2cc(O)cc(O)c12 [Morin]	–	–	IC50 relative to that of myricetin: 10 fold; IC50: 82 µM
O=c1cc(-c2ccccc2)oc2c(O)c(O)ccc12 [7,8-Dihydroxyflavone]	–	–	inhibition pattern with respect to L-ornithine (double reciprocal plots): noncompetitive inhibition pattern; IC50: 2.54 µM; Ki (with respect to substrate L-ornithine, noncompetitive fit, read-out: Ki(ornithine) against ODC): 1.4 ± 0.1 µM
Cn1cnc2c1c(=O)[nH]c(=O)n2C [Theobromine, reference compound]	–	cannot inhibit ODC activity	ODC suppression activity (in words) (listed as theobromine): none of these compounds were able to suppress ODC activity
O=c1c(O)c(-c2ccc(O)cc2)oc2cc(O)cc(O)c12 [Kaempferol]	–	did not show any ODC suppression activity	–
O=c1c(O)c(-c2ccc(O)c(O)c2)oc2cc(O)ccc12 [Fisetin]	–	–	IC50: 96 µM

From article PMC7765794 (Nutrients, 2020)
